Laboratory results from patent US20250154250A1, “CEACAM5 ADC-ANTI-PD1/PD-L1 COMBINATION THERAPY” (SANOFI, priority 2021, published 2025).
Like-named read-outs stand apart in the source and are kept apart here.

Tests used:
[1] = test system: subcutaneous colon MC38 syngeneic tumor; assay: subcutaneous colon MC38 syngeneic tumor model; conditions: for tolerability of treatments: doses lower than maximal tolerated dose (MTD); for Drug death (day) / Mean body weight change in % at nadir (day) / Regression CR / Regression PR: n=6
Procedure: […] Control groups were left untreated. The doses of the compounds used are given in mg/kg.
For the evaluation of anti-tumor activity, animals were weighed, and tumors were measured by caliper 2 times weekly. A dosage producing a 20% weight loss at nadir (mean of group) or 10% or more drug deaths, was considered an excessively toxic dosage. Animal body weights included the tumor weights. Tumor volumes were calculated using the formula mass (mm^3)=[length (mm)×width (mm)×width (mm)]/2. The primary efficacy end points are ΔT/ΔC, percent median regression, partial and complete regressions (PR and CR).
Changes in tumor volume for each treated (T) and control (C) are calculated for each tumor by subtracting the tumor volume on the day of first treatment (staging day) from the tumor volume on the specified observation day. The median ΔT is calculated for the treated group and the median ΔC is calculated for the control group. Then the ratio ΔT/ΔC is calculated and expressed as a percentage: ΔT/ΔC=(delta T/delta C)×100.
The dose is considered as therapeutically active when ΔT/ΔC is lower than 40% and very active when ΔT/ΔC is lower than 10%.
% tumor regression is defined as the % of tumor volume decrease in the treated group at a specified observation day compared to its volume on the first day of first treatment.
At a specific time point and for each animal, % regression is calculated. The median % regression is then calculated for the group:
Partial regression (PR): Regressions are defined as partial if the tumor volume decreases to 50% of the tumor volume at the start of treatment.
Complete regression (CR): Complete regression is achieved when tumor volume=0 mm^3 (CR is considered when tumor volume cannot be recorded).
Control groups were left untreated. The doses of the compounds used are given in mg/kg.
See above (Ex 2) for the conditions of anti-tumor activity and toxicity evaluation.

CEACAM1 = CEACAM1 (Homo sapiens, UniProt P13688)
Sequence of CEACAM1 (P13688 35-526): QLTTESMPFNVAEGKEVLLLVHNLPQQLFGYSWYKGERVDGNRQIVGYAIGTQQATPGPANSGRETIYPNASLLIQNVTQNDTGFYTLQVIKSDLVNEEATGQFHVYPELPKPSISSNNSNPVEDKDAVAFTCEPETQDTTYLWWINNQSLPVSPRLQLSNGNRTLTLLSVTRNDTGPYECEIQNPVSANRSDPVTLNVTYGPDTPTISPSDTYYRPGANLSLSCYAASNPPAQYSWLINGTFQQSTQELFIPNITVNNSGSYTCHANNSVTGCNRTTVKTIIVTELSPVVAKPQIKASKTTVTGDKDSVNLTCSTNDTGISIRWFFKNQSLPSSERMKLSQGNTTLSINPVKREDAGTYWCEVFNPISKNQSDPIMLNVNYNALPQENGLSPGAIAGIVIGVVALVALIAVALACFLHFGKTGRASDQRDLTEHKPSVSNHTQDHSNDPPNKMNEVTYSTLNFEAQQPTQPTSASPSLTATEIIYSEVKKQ

CEACAM6 = CEACAM6 (Homo sapiens, UniProt P40199)
Sequence of CEACAM6 (P40199 35-320): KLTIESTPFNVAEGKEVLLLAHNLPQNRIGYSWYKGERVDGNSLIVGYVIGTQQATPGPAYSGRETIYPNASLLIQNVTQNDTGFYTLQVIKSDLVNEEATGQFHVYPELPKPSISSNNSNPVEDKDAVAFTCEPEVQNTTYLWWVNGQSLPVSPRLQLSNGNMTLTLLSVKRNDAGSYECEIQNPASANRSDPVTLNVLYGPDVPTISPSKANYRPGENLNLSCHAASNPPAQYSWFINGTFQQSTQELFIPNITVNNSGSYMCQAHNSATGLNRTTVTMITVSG

CEACAM7 = CEACAM7 (Homo sapiens, UniProt Q14002)
Sequence of CEACAM7 (Q14002 36-242): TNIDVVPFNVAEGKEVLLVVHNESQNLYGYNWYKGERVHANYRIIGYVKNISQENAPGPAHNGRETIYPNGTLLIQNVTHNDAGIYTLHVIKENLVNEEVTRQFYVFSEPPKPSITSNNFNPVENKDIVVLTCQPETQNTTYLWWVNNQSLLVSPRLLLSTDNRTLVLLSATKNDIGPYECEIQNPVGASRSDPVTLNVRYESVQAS

CEACAM8 = CEACAM8 (Homo sapiens, UniProt P31997)
Sequence of CEACAM8 (P31997 35-320): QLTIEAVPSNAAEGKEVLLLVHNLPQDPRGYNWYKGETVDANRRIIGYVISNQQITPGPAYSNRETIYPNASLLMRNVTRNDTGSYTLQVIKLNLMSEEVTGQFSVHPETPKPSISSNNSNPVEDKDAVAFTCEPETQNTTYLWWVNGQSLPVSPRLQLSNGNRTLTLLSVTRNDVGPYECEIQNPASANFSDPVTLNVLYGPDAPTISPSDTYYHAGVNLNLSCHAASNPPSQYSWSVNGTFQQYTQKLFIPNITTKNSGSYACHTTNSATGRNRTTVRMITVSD

[2] = test system: NSQ NSCLC with tumor CEACAM5 expression
[3] = test system: human primary colon and stomach tumors; conditions: mice bearing human primary colon and stomach tumors; see WO 2014/079886; cited from earlier work
[4] = huMAb2-3-SPDB-DM4 15 mg/kg IV day 10, alone or + antibody 10 mg/kg IV
[5] = huMAb2-3-SPDB-DM4 25 mg/kg IV day 10, alone or + antibody 10 mg/kg IV
[6] = antibody as single agent 10 mg/kg IV (total 40)

## tusamitamab ravtansine
[1]
  tolerability of treatments: well tolerated and did not induce toxicity
[1]; [4]
  Biological comments: Inactive
  Median ΔT/ΔC in % (D 22): 46%
  Drug death (day): 0/6
  Mean body weight change in % at nadir (day): +3.95%
  Regression CR: 0/6
  Regression PR: 0/6
[1]; [5]
  Biological comments: highly active
  Median ΔT/ΔC in % (D 22): <0%
  Drug death (day): 0/6
  Mean body weight change in % at nadir (day): +1.30%
  Regression CR: 1/6
  Regression PR: 4/6
CEACAM1
  recognition of CEACAM1: does not recognize
CEACAM6
  recognition of CEACAM6: does not recognize
CEACAM7
  recognition of CEACAM7: does not recognize
CEACAM8
  recognition of CEACAM8: does not recognize
[2]; 28 heavily pre-treated patients, tumor CEACAM5 expression ≥1% and <5 0%
  overall response rate per RECIST 1.1: 7.1%
[2]; 64 heavily pre-treated patients, tumor CEACAM5 expression ≥50%
  overall response rate per RECIST 1.1: 20.3%
[3]
  tumor growth in vivo: markedly inhibit tumor growth

## Atezolizumab [anti-mu/huPD-L1 (Atezolizumab), reference compound]
[1]; [6]
  Biological comments: Marginally
  Drug death (day): 0/6
  Mean body weight change in % at nadir (day): +2.08%
  Regression CR: 1/6
  Regression PR: 1/6
[1]; antibody as single agent 10 mg/kg IV (total 40), listed as anti-mu/PD-L1 mAb
  Biological comments: marginally active
[1]
  tolerability of treatments: well tolerated and did not induce toxicity
